This assay relates to anesthetized cats. Kind of assay: Determination of the effect on blood pressure and the positive inotropic effect in anesthetized cats. The format is in vivo. The settings on record: 2 mg/kg i.v.; for Increase in dp/dtmax in %: left ventricle contractility parameter; for Reduction in Blood Pressure in mm Hg: arterial pressure, aorta abdominalis. Here is the method: Determination of the effect on blood pressure and the positive inotropic effect in anesthetized cats
The tests were carried out on cats which had been anesthetized with sodium pentobarbital (40 mg/kg i.p.). The animals breathed spontaneously. The arterial blood pressure was measured in the aorta abdominalis, using a Statham pressure transducer (P 23 Dc). To determine the positive inotropic effect, the pressure in the left ventricle was measured with a catheter-tip manometer (Millar PC-350 A). From this, the contractility parameter dp/dtmax was obtained, using an analogue differentiator. The test compounds were injected into a vena femoralis. The solvent used was physiological saline solution of Polydiol 200. Each compound was tested on at least 3 cats, dosage 2 mg/kg i.v.

This is an account of results in patent publication US4766130A, “2-phenyl-imidazopyridin-ones and also useful as cardiotonics and anti-hypertensives” (Celamerck GmbH & Co. KG, priority 1983, dated 1988).

Where a name gives a salt, the structure may show the parent alone.

Consider `COc1cc(OS(C)(=O)=O)ccc1C1=NC2=CCC(=O)NC2=N1` [C, 2-(2-methoxy-4-methanesulfonyloxy-phenyl)-4H-imidazo[4,5-b]pyridin-5-one], for which the “Duration of effective action (Half life)” value turned out to be 31 min and the “Increase in dp/dtmax in %” value was “+158%”. Moreover, where the note is “value after the slash”, the “Reduction in Blood Pressure in mm Hg” value is listed as -54 mm Hg. In addition, the “Reduction in Blood Pressure in mm Hg” value (value before the slash) is -54 mm Hg.
As for `COc1cc(OS(C)(=O)=O)ccc1-c1nc2c(OS(C)(=O)=O)nccc2[nH]1` [E, 2-(2-methoxy-4-methanesulfonyloxy-phenyl)-4-methanesulfonyloxy-imidazo[4,5-c]pyridine], the “Duration of effective action (Half life)” value was 29 min and the “Increase in dp/dtmax in %” value is “+87%”. The “Reduction in Blood Pressure in mm Hg” value (value after the slash) is listed as -27 mm Hg. Moreover, for the setting “value before the slash”, the “Reduction in Blood Pressure in mm Hg” value is reported as -35 mm Hg.
As to `COc1cc(OS(C)(=O)=O)ccc1C1=NC2=NCC(=O)NC2=N1` [G, 2-(2-methoxy-4-methanesulfonyloxy-phenyl)-4H-imidazo[4,5-b]pyrazin-5-one], the “Duration of effective action (Half life)” value is 5 min and the “Increase in dp/dtmax in %” value is given as “+100%”. The “Reduction in Blood Pressure in mm Hg” value (value after the slash) is on record as -27 mm Hg. Also, where the note is “value before the slash”, the “Reduction in Blood Pressure in mm Hg” value was -26 mm Hg.
The like results for `COc1cc(OS(C)(=O)=O)ccc1-c1nc2[nH]c(=O)ncc2[nH]1` [A, 8-(2-methoxy-4-methanesulfonyloxy-phenyl)-3(1)H-purin-2-one] were, in that order, 42 min, “+48%”, -6 mm Hg and -8 mm Hg.
With `COc1cc(OS(C)(=O)=O)ccc1-c1nc2nc(OS(C)(=O)=O)ccc2[nH]1` (single isomer, unassigned) [B, 2-(2-methoxy-4-methanesulfonyloxy-phenyl)-5-methanesulfonyloxy-imidazo[4,5-b]pyridine], the “Duration of effective action (Half life)” value is 37 min and the “Increase in dp/dtmax in %” value is “+53%”. Besides, the “Reduction in Blood Pressure in mm Hg” value (value after the slash) is given as -42 mm Hg. The “Reduction in Blood Pressure in mm Hg” value (value before the slash) was -50 mm Hg.
With `COc1cc(OS(C)(=O)=O)ccc1-c1nc2c(=O)[nH]ccc2[nH]1` [D, 2-(2-methoxy-4-methanesulfonyloxy-phenyl)-5H-imidazo[4,5-c]pyridin-4-one hydrochloride], the “Duration of effective action (Half life)” value was found to be 31 min and the “Increase in dp/dtmax in %” value was “+117%”. The “Reduction in Blood Pressure in mm Hg” value (value after the slash) is listed as -42 mm Hg. In addition, the “Reduction in Blood Pressure in mm Hg” value (value before the slash) is listed as -42 mm Hg.
For `C#CCOc1ccc(-c2nc3c(=O)[nH]ccc3[nH]2)c(OC)c1` [F, 2-(2-methoxy-4-propargyloxy-phenyl)=5H-imidazo[4,5-c]pyridin-4-one], the “Duration of effective action (Half life)” value is 8 min and the “Increase in dp/dtmax in %” value was “+138%”. For the same molecule, the “Reduction in Blood Pressure in mm Hg” value (value after the slash) was -47 mm Hg. Further, the “Reduction in Blood Pressure in mm Hg” value (value before the slash) is -59 mm Hg.
